This is an account of results in patent publication US20050202111A1, “Anti-Parkinson's disease pharmaceutical and method of use” (priority 2004, published 2005).

Each structure is given as a SMILES string.

One assay deals with mitochondrial complex-I. Description: In vivo effect on brain mitochondrial complex-I activity (NADH oxidation). Set-up: species or system Sprague Dawley rats. The note with it: intraperitoneally for 2 weeks, brain mitochondrial (P2) fraction. The method, then: Various doses of MPX were administered intraperitoneally to Sprague Dawley rats for 2 weeks, while a control group was treated with saline. The rats were sacrificed one hour after the last injection, and the mitochondrial (P2) fraction was prepared from the dissected rat brains. Mitochondrial complex-I activity was based on the oxidation of NADH (5.6 mg in 1 ml water) measured at 340 nm (Ramsay et al. 1986. “Inhibition of mitochondrial NADH dehydrogenase by pyridine derivatives and its possible relation to experimental and idiopathic parkinsonism,” Biochem Biophys Res Commun 135:269-275 (this references is hereby incorporated by reference in its entirety)).

In assay [1] the test system is N-methyl-4-phenyl-1,2,3,6-tetrahydropyridine induced dopaminergic neurodegeneration. To be noted: in vivo; cited from earlier work.
The next assay relates to complex-I. The note with it: mouse, in vivo; cited from earlier work.

Take `N[C@@H](Cc1ccc(O)c(O)c1)C(=O)O` [Levodopa, L-3,4-dihydroxyphenylalanine]: in the assay with mitochondrial complex-I, the “mitochondrial complex-I activity” value was “significantly inhibitory effect on complex-I”.

Turning to `O=C(O[C@@H]1Cc2c(O)cc(O)cc2O[C@@H]1c1cc(O)c(O)c(O)c1)c1cc(O)c(O)c(O)c1` [(−)-epigallocatechin-3-gallate], the dopaminergic neurodegeneration result in assay [1] is recorded as “prevents N-methyl-4-phenyl-1,2,3,6-tetrahydropyridine induced dopaminergic neurodegeneration”.

In the case of `CC(=O)N[C@@H](CS)C(=O)O` [N-acetylcysteine], the “age-related decrease in complex-I activity” value in the assay with complex-I is “can protect against age-related decrease in complex-I activity”.
